The text below walks through data of US20050070510A1, “Substituted tetracycline compounds as synergistic antifungal agents” (Paratek Pharmaceuticals, Inc., priority 2001, published 2005).

Structures are written as SMILES.

The test system of the data set is COS-1 cells. Briefly: In vitro mammalian cytotoxicity assay (Resazurin).
As to `COC(=O)c1ccc(-c2ccc(O)c3c2C[C@@]2(N)C[C@@]4(N)[C@H](N(C)C)C(O)=C(C(N)=O)C(=O)[C@@]4(C#N)C(O)=C2C3=O)cc1` [EF], the “In Vitro Cytotoxicity” value is “** (toxicities less than 25 μg/mL are represented by **)”.

As to `CN(C)[C@@H]1C(O)=C(C(N)=O)C(=O)[C@@]2(C#N)C(O)=C3C(=O)c4c(O)ccc(C=C5CCC5)c4C[C@@]3(N)C[C@@]12N` [FS], the “In Vitro Cytotoxicity” value was “** (toxicities less than 25 μg/mL are represented by **)”.

Regarding `CN(C)c1ccc(-c2cc(F)c(O)c3c2C[C@@]2(N)C[C@@]4(N)[C@H](N(C)C)C(O)=C(C(N)=O)C(=O)[C@@]4(C#N)C(O)=C2C3=O)cc1` [OX], the “In Vitro Cytotoxicity” value is “** (toxicities less than 25 μg/mL are represented by **)”.

Take `CC(C)COC(=O)Nc1ccc(-c2ccc(O)c3c2C[C@@]2(N)C[C@@]4(N)[C@H](N(C)C)C(O)=C(C(N)=O)C(=O)[C@@]4(C#N)C(O)=C2C3=O)cc1` [OD]: the “In Vitro Cytotoxicity” value was “** (toxicities less than 25 μg/mL are represented by **)”.

Regarding `CN(C)[C@@H]1C(O)=C(C(N)=O)C(=O)[C@@]2(C#N)C(O)=C3C(=O)c4c(O)ccc(C#Cc5ccccc5)c4C[C@@]3(N)C[C@@]12N` [FX], the “In Vitro Cytotoxicity” value was “** (toxicities less than 25 μg/mL are represented by **)”.

`COC(=O)CCC(=O)Nc1ccc(-c2ccc(O)c3c2C[C@@]2(N)C[C@@]4(N)[C@H](N(C)C)C(O)=C(C(N)=O)C(=O)[C@@]4(C#N)C(O)=C2C3=O)cc1` [UT]: the “In Vitro Cytotoxicity” value is recorded as “** (toxicities less than 25 μg/mL are represented by **)”.

As for `CN(C)[C@@H]1C(O)=C(C(N)=O)C(=O)[C@@]2(C#N)C(O)=C3C(=O)c4c(O)ccc(-c5cncnc5)c4C[C@@]3(N)C[C@@]12N` [TQ], the “In Vitro Cytotoxicity” value is on record as “* (toxicities greater than >25 μg/ml are represented by *)”.

Turning to `CCc1ccc(-c2cc(N(C)C)c3c(c2O)C(=O)C2=C(O)[C@]4(C#N)C(=O)C(C(N)=O)=C(O)[C@@H](N(C)C)[C@]4(N)C[C@]2(N)C3)cc1` [LZ], the “In Vitro Cytotoxicity” value is listed as “** (toxicities less than 25 μg/mL are represented by **)”.

On to `CCNC(=O)CNC(=O)c1cccc(-c2ccc(O)c3c2C[C@@]2(N)C[C@@]4(N)[C@H](N(C)C)C(O)=C(C(N)=O)C(=O)[C@@]4(C#N)C(O)=C2C3=O)c1` [PD], for which the “In Vitro Cytotoxicity” value was “* (toxicities greater than >25 μg/ml are represented by *)”.

As to `COc1ccc(CNCc2cccc(F)c2)cc1-c1ccc(O)c2c1C[C@@]1(N)C[C@@]3(N)[C@H](N(C)C)C(O)=C(C(N)=O)C(=O)[C@@]3(C#N)C(O)=C1C2=O` [NG], the “In Vitro Cytotoxicity” value is reported as “** (toxicities less than 25 μg/mL are represented by **)”.

As for `CN(C)[C@@H]1C(O)=C(C(N)=O)C(=O)[C@@]2(C#N)C(O)=C3C(=O)c4c(ccc(Nc5ccc(-c6ccccc6)s5)c4O)[C@H](N)[C@@]3(N)[C@H](O)[C@@]12N` [DT], the “In Vitro Cytotoxicity” value is recorded as “** (toxicities less than 25 μg/mL are represented by **)”.

On to `COC(=O)c1cc(NC(=O)c2ccno2)cc(-c2ccc(O)c3c2C[C@@]2(N)C[C@@]4(N)C(N(C)C)C(O)=C(C(N)=O)C(=O)[C@@]4(C#N)C(O)=C2C3=O)c1` (stereo partly drawn) [RG], for which the “In Vitro Cytotoxicity” value is recorded as “* (toxicities greater than >25 μg/ml are represented by *)”.

Regarding `CN(C)[C@@H]1C(O)=C(C(N)=O)C(=O)[C@@]2(C#N)C(O)=C3C(=O)c4c(O)ccc(C#CCCCCC#Cc5ccc(O)c6c5C[C@@]5(N)C[C@@]7(N)[C@H](N(C)C)C(O)=C(C(N)=O)C(=O)[C@@]7(C#N)C(O)=C5C6=O)c4C[C@@]3(N)C[C@@]12N` [Compound NB, 1,8-Di-7-Sancyclinyl-1,8-Heptyne], the “In Vitro Cytotoxicity” value was “* (toxicities greater than >25 μg/ml are represented by *)”.

Take `CN(C)[C@@H]1C(O)=C(C(N)=O)C(=O)[C@@]2(C#N)C(O)=C3C(=O)c4c(ccc(-c5ccc(C(=O)F)c6ccccc56)c4O)[C@H](N)[C@@]3(N)[C@H](O)[C@@]12N` [PO]: the “In Vitro Cytotoxicity” value is given as “** (toxicities less than 25 μg/mL are represented by **)”.

For `CC(C)NCc1ccc(-c2ccc(O)c3c2C[C@@]2(N)C[C@@]4(N)[C@H](N(C)C)C(O)=C(C(N)=O)C(=O)[C@@]4(C#N)C(O)=C2C3=O)c2ccccc12` [OE], the “In Vitro Cytotoxicity” value is “** (toxicities less than 25 μg/mL are represented by **)”.
